Laboratory results published in ChEMBL document CHEMBL2203238, “Hit to Lead optimization of a novel class of squarate-containing polo-like kinases inhibitors” (Bioorg Med Chem Lett, 2012).

Key:
[1] = Cmax in mouse at 50 mg/kg, po measured at 8 hrs; format: ADME, organism-based; parameters: dose 50 mg/kg, route oral; conditions: in vivo
[2] = Volume of distribution in mouse; format: ADME, organism-based; conditions: in vivo
[3] = biological target: Mitogen-activated protein kinase 13 (Homo sapiens, UniProt O15264); test: Inhibition of recombinant P38delta after 1 hr by scintillation counter analysis in presence of gamma-[33P]ATP
Chain of Mitogen-activated protein kinase 13 (O15264 whole entry): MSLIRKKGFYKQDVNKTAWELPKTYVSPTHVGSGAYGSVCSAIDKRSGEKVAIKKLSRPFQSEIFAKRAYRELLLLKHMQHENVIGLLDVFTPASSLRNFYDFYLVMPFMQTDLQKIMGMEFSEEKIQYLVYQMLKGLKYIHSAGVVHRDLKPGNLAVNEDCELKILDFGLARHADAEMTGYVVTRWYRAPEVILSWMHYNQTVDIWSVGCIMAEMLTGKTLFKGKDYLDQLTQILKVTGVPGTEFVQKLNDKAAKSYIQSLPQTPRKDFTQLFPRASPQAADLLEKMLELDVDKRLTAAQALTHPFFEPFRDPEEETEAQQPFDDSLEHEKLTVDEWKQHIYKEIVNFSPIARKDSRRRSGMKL

[4] = biological target: Hepatocyte growth factor receptor (Homo sapiens, UniProt P08581); test: Inhibition of recombinant c-MET after 1 hr by scintillation counter analysis in presence of gamma-[33P]ATP
[5] = biological target: Non-receptor tyrosine-protein kinase TYK2 (Homo sapiens, UniProt P29597); test: Inhibition of recombinant TYK2 after 1 hr by scintillation counter analysis in presence of gamma-[33P]ATP
Chain of Non-receptor tyrosine-protein kinase TYK2 (P29597 whole entry): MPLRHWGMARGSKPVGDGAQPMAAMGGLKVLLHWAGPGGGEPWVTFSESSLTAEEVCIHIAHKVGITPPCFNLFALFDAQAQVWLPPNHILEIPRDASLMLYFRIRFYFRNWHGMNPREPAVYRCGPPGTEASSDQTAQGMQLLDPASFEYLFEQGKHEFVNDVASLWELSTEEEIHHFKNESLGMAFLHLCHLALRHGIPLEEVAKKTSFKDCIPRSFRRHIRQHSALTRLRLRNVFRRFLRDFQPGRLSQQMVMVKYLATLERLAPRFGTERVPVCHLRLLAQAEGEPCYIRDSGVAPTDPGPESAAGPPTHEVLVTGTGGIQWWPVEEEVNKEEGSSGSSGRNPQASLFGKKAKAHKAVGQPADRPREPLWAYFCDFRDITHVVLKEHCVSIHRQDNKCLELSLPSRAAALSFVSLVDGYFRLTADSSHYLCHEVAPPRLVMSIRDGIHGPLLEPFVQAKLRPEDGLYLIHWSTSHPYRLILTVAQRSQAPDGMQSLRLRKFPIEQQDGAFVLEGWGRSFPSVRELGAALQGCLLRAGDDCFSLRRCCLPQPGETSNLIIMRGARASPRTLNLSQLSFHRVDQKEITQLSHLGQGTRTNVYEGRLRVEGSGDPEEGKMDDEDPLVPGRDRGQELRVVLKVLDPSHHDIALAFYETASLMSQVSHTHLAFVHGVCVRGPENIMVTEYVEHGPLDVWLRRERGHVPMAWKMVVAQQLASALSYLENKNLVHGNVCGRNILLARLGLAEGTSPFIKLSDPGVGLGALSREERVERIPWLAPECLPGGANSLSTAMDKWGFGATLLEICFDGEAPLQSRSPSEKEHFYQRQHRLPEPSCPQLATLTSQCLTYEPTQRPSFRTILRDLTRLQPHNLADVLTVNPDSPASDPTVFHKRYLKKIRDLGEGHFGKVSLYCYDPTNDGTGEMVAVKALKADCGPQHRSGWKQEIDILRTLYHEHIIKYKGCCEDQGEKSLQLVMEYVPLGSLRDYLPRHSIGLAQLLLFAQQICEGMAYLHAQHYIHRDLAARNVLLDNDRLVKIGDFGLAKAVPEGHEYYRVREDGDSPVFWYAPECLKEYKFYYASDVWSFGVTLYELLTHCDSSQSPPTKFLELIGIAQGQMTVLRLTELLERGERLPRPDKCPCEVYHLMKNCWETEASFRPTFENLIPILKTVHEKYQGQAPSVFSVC

[6] = biological target: Proto-oncogene tyrosine-protein kinase Src (Homo sapiens, UniProt P12931); test: Inhibition of recombinant SRC after 1 hr by scintillation counter analysis in presence of gamma-[33P]ATP
[7] = biological target: Serine/threonine-protein kinase Sgk1 (Homo sapiens, UniProt O00141); test: Inhibition of recombinant SGK after 1 hr by scintillation counter analysis in presence of gamma-[33P]ATP
[8] = Inhibition of recombinant PKA after 1 hr by scintillation counter analysis in presence of gamma-[33P]ATP
[9] = biological target: 3-phosphoinositide-dependent protein kinase 1 (Homo sapiens, UniProt O15530); test: Inhibition of recombinant PDK1 after 1 hr by scintillation counter analysis in presence of gamma-[33P]ATP
[10] = biological target: Serine/threonine-protein kinase PAK 1 (Homo sapiens, UniProt Q13153); test: Inhibition of recombinant PAK1 after 1 hr by scintillation counter analysis in presence of gamma-[33P]ATP
[11] = biological target: Serine/threonine-protein kinase Nek2 (Homo sapiens, UniProt P51955); test: Inhibition of recombinant NEK2 after 1 hr by scintillation counter analysis in presence of gamma-[33P]ATP
LIM domain kinase 1 = LIM domain kinase 1 (Homo sapiens, UniProt P53667); test: Inhibition of recombinant LIMK1 after 1 hr by scintillation counter analysis in presence of gamma-[33P]ATP
[12] = biological target: Tyrosine-protein kinase JAK3 (Homo sapiens, UniProt P52333); test: Inhibition of recombinant JAK3 after 1 hr by scintillation counter analysis in presence of gamma-[33P]ATP
Chain of Tyrosine-protein kinase JAK3 (P52333 whole entry): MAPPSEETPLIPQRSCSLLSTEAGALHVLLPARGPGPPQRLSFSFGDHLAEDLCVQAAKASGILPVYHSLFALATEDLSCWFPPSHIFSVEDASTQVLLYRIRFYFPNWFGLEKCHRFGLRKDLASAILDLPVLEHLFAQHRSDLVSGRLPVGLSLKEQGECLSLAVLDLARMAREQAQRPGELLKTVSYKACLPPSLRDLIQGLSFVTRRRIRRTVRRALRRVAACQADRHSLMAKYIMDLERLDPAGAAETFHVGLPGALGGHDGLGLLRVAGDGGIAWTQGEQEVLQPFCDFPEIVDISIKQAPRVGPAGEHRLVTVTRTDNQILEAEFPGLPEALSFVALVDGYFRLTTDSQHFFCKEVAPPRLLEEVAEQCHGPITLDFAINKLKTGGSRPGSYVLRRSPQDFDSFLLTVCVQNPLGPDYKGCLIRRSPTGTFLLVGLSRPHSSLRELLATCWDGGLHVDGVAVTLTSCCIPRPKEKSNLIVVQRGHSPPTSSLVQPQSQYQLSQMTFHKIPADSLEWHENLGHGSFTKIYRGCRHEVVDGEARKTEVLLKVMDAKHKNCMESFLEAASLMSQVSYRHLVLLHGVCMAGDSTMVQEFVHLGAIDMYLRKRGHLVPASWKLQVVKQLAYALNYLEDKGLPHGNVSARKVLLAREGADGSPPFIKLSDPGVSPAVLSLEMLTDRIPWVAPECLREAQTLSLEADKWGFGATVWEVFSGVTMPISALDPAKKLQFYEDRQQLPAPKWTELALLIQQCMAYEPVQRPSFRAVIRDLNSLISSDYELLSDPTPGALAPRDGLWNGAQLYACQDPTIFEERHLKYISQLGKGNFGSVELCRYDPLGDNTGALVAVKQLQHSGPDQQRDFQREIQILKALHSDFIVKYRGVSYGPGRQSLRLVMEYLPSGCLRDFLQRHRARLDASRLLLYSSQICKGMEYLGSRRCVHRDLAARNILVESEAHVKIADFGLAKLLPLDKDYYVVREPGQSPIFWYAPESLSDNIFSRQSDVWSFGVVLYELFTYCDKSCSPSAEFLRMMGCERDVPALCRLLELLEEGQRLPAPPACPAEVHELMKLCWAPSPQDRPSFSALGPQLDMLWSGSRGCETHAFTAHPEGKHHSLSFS

[13] = biological target: Tyrosine-protein kinase JAK2 (Homo sapiens, UniProt O60674); test: Inhibition of recombinant JAK2 after 1 hr by scintillation counter analysis in presence of gamma-[33P]ATP
Chain of Tyrosine-protein kinase JAK2 (O60674 whole entry): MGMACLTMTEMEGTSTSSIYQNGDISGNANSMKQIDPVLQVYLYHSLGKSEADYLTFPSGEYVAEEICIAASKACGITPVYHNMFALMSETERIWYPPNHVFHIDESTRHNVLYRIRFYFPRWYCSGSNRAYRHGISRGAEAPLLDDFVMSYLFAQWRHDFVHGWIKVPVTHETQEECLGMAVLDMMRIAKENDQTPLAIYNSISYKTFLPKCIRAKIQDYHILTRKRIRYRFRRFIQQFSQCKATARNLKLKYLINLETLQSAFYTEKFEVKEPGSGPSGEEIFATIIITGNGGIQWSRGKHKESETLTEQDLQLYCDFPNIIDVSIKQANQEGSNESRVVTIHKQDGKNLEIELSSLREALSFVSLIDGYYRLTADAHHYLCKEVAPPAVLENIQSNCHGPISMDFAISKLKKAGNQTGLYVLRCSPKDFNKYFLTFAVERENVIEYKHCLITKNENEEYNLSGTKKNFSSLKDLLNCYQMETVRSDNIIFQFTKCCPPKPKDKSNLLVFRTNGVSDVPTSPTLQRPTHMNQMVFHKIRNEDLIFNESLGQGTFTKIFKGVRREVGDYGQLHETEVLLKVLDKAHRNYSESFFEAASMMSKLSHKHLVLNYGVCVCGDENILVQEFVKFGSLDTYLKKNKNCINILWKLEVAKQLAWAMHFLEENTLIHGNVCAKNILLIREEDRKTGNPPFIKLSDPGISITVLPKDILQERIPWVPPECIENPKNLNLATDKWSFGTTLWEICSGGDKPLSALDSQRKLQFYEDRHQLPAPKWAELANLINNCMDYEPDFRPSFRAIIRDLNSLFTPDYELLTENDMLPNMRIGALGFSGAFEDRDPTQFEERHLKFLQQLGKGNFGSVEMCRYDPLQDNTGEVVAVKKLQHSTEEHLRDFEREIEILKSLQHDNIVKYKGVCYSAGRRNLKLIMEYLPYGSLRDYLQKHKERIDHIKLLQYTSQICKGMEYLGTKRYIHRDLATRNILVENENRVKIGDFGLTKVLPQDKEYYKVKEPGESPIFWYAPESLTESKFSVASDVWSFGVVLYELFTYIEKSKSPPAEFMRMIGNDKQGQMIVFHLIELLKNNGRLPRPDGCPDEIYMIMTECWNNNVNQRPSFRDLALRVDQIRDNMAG

[14] = biological target: Interleukin-1 receptor-associated kinase 4 (Homo sapiens, UniProt Q9NWZ3); test: Inhibition of recombinant IRAK4 after 1 hr by scintillation counter analysis in presence of gamma-[33P]ATP
Chain of Interleukin-1 receptor-associated kinase 4 (Q9NWZ3 whole entry): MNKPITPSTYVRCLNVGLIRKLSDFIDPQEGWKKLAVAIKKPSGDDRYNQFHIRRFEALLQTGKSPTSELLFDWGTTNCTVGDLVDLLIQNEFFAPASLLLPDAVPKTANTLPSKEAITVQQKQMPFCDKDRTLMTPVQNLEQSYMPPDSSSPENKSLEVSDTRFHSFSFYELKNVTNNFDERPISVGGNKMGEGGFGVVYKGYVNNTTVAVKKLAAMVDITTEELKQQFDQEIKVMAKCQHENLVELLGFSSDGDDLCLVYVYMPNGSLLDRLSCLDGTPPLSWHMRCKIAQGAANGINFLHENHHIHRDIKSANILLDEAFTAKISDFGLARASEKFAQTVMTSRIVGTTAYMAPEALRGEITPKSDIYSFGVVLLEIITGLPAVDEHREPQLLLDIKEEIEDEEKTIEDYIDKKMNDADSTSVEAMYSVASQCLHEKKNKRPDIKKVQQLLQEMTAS

[15] = biological target: Tyrosine-protein kinase Fyn (Homo sapiens, UniProt P06241); test: Inhibition of recombinant FYN after 1 hr by scintillation counter analysis in presence of gamma-[33P]ATP
[16] = biological target: Receptor-type tyrosine-protein kinase FLT3 (Homo sapiens, UniProt P36888); test: Inhibition of recombinant FLT3 after 1 hr by scintillation counter analysis in presence of gamma-[33P]ATP
[17] = biological target: Fibroblast growth factor receptor 3 (Homo sapiens, UniProt P22607); test: Inhibition of recombinant FGFR3 after 1 hr by scintillation counter analysis in presence of gamma-[33P]ATP
[18] = biological target: Receptor tyrosine-protein kinase erbB-4 (Homo sapiens, UniProt Q15303); test: Inhibition of recombinant ERBB4 after 1 hr by scintillation counter analysis in presence of gamma-[33P]ATP
[19] = biological target: Macrophage colony-stimulating factor 1 receptor (Homo sapiens, UniProt P07333); test: Inhibition of recombinant CSF1R after 1 hr by scintillation counter analysis in presence of gamma-[33P]ATP
[20] = Inhibition of recombinant CK2 after 1 hr by scintillation counter analysis in presence of gamma-[33P]ATP
[21] = biological target: Calcium/calmodulin-dependent protein kinase type IV (Homo sapiens, UniProt Q16566); test: Inhibition of recombinant CAMK4 after 1 hr by scintillation counter analysis in presence of gamma-[33P]ATP
[22] = biological target: Serine/threonine-protein kinase Chk2 (Homo sapiens, UniProt O96017); test: Inhibition of recombinant CHK2 after 1 hr by scintillation counter analysis in presence of gamma-[33P]ATP
[23] = biological target: Tyrosine-protein kinase Blk (Homo sapiens, UniProt P51451); test: Inhibition of recombinant BLK after 1 hr by scintillation counter analysis in presence of gamma-[33P]ATP
[24] = biological target: Cell division control protein 42 homolog (Homo sapiens, UniProt P60953); test: Inhibition of recombinant CDC42 after 1 hr by scintillation counter analysis in presence of gamma-[33P]ATP
[25] = biological target: Serine/threonine-protein kinase PLK1 (Homo sapiens, UniProt P53350); test: Inhibition of recombinant GST-tagged PLK1 using biotin-ahx-AKMETTFYDDALNASFLPSEKKK-amide as substrate after 30 mins by scintillation counting analysis in presence of gamma-[33P]ATP
[26] = biological target: Serine/threonine-protein kinase Chk1 (Homo sapiens, UniProt O14757); test: Inhibition of recombinant CHK1 after 1 hr by scintillation counter analysis in presence of gamma-[33P]ATP
Chain of Serine/threonine-protein kinase Chk1 (O14757 whole entry): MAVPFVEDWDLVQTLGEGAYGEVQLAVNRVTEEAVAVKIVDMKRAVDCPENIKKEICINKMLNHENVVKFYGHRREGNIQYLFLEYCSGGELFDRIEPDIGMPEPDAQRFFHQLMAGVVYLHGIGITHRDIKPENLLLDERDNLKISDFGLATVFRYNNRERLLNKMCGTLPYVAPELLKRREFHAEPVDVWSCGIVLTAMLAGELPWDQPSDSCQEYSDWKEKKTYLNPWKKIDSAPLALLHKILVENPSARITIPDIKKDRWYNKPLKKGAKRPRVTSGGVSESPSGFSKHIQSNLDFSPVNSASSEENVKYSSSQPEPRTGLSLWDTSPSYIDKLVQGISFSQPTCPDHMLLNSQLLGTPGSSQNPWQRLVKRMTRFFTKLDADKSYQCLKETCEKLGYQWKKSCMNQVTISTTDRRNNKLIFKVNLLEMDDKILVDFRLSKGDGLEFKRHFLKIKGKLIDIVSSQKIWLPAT

[27] = biological target: Cyclin-dependent kinase 5 (Homo sapiens, UniProt Q00535); test: Inhibition of recombinant CDK5 after 1 hr by scintillation counter analysis in presence of gamma-[33P]ATP
Chain of Cyclin-dependent kinase 5 (Q00535 whole entry): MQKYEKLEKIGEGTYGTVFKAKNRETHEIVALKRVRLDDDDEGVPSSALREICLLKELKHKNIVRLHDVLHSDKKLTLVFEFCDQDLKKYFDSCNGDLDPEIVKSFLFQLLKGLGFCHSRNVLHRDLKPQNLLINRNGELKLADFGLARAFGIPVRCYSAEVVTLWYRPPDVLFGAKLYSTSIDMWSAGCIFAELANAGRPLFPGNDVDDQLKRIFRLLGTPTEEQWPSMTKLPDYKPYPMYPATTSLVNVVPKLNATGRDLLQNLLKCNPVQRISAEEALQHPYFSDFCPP

[28] = biological target: RAC-alpha serine/threonine-protein kinase (Homo sapiens, UniProt P31749); test: Inhibition of recombinant AKT1 after 1 hr by scintillation counter analysis in presence of gamma-[33P]ATP

Cmax [1]: 3.3 µM
Vd [2]: 3.7 L/kg
Ki [3]: 5900 nM
Ki [4]: 1600 nM
Ki [5]: > 1900 nM
Ki [6]: > 1900 nM
Ki [7]: 260 nM
Ki [8]: > 7500 nM
Ki [9]: 71 nM
Ki [10]: > 9700 nM
Ki [11]: > 9200 nM
Ki (LIM domain kinase 1): 194 nM
Ki [12]: > 1700 nM
Ki [13]: 920 nM
Ki [14]: > 9900 nM
Ki [15]: 328 nM
Ki [16]: 494 nM
Ki [17]: 1400 nM
Ki [18]: > 3700 nM
Ki [19]: 2100 nM
Ki [20]: 276 nM
Ki [21]: > 8500 nM
Ki [22]: 88 nM
Ki [23]: > 1400 nM
Ki [24]: > 4400 nM
Ki [25]: 5 nM
Ki [26]: 167 nM
Ki [27]: 416 nM
Ki [28]: > 8000 nM
SMILES: CC(C)(C)Nc1c(Nc2ccnc(Nc3ccc(-c4ccncc4)cc3)n2)c(=O)c1=O
